Results published in PMC10397204, “Revealing protonation states and tracking substrate in serine hydroxymethyltransferase with room-temperature X-ray and neutron crystallography” (Communications Chemistry, 2023).

What was measured:
TthSHMT [1] = biological target: T1, TthSHMT (Thermus thermophilus, UniProt Q5SI56); experiment: joint room-temperature X-ray/neutron crystallography, crystal soak; assay type: binding; details: pH 5.5, 500 mM; D2O H/D exchange; labelled compound; noncovalent pre-Michaelis complex in peripheral site, protomer A, sulfate in substrate site
T1 construct: gene glyA; recombinant in E. coli BL21(DE3), codon-optimized glyA, N-terminal His6-tag with linker removed by TEV, starts at Ser3; homodimer, active site formed by residues of both protomers
T1 sequence (Q5SI56 3-407): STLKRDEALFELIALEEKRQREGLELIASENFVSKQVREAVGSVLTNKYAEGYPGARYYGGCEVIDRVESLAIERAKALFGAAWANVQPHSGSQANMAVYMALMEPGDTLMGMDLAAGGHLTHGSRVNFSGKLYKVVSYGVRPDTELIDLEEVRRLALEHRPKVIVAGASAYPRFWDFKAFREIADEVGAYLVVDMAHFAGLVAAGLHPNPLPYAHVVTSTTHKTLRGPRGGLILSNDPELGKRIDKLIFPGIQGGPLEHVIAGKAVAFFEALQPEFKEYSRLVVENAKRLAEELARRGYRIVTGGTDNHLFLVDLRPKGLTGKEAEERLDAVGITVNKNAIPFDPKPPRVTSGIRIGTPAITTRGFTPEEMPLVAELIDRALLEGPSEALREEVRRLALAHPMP

TthSHMT [2] = biological target: T1, TthSHMT; experiment: joint room-temperature X-ray/neutron crystallography; assay type: binding; details: pH 5.5; covalent; Schiff base with Lys226 (internal aldimine)

Structure (SMILES) | joint room-temperature X-ray/neutron crystallography, crystal soak (TthSHMT [1]) | joint room-temperature X-ray/neutron crystallography (TthSHMT [2])
N[C@@H](CO)C(=O)O [L-Ser-d7] | we observed L-Ser-d7 bound in a pocket on the periphery of the active site | –
Cc1ncc(COP(=O)(O)O)c(C=O)c1O [PLP] | – | In TthSHMT, PLP is covalently bound to Lys226 (Lys280 in hSHMT2) through a Schiff base
